Measured values reported in PMC5382548 (Scientific Reports, 2015).

Columns and labels:
[1] = test system: KRAS21R G4; assay: FRET melting assay, KRAS21R G4; type: binding, human; conditions: G4 0.2 μM, ligand 1 μM, K-cacodylate buffer pH 7.4, 60 mM K+
Method: (§1) Fluorescence resonance energy transfer (FRET) studies with DNA sequences labelled at the 5′ and 3′ ends, were conducted to evaluate the G4 DNA stabilizing properties of IQcs (at 0.1 to 5 μM ligand concentrations). The G4-forming sequence KRAS21R[11], together with T-loop, a 26-mer hairpin double-stranded DNA (ds-DNA) sequence were used in the first screening assay. Reproducible IQc dose-dependent melting curves (Sup. Inf.; Figure S3) and stabilization temperature (ΔTm) values were obtained (Figure 2 and Table S5).
(§2) Figure 2 FRET stabilization temperatures (ΔTm) of KRAS21R G4 and hairpin ds-DNA (T-loop) at 0.2 μM, in K-cacodylate buffer (pH = 7.4, 60 mM K^+), stabilized by IQc derivatives and TMPyP4 at 1 μM. ^a) SD ≤ 0.2°C. TEXT PRINTED IN THE PICTURE: TMPyP4: ΔTm / °C ^a) (T-Loop): 16.0; ΔTm / °C ^a) (KRAS21R): 25.1 | 3e: ΔTm / °C ^a) (T-Loop): 6.5; ΔTm / °C ^a) (KRAS21R): 22.0 | 3d: ΔTm / °C ^a) (T-Loop): 5.6; ΔTm / °C ^a) (KRAS21R): 19.9 | 2d: ΔTm / °C ^a) (T-Loop): 6.1; ΔTm / °C ^a) (KRAS21R): 15.1 | 2a: ΔTm / °C ^a) (T-Loop): 1.5; ΔTm / °C ^a) (KRAS21R): 4.4 […]
(§3) Oligonucleotide sequences were purchased from Eurofins MWG Synthesis GmbH, Germany or STAB VIDA Genomics Lab, Caparica, Lisbon, Portugal. The labelled oligonucleotides used in the FRET assays had attached the donor fluorophore FAM (6-carboxyfluorescein) and the acceptor fluorophore TAMRA (6-carboxytetramethylrhodamine): KRAS21R: 5′-FAM-[…]-TAMRA-3′; KRAS32R: 5′-FAM-[…]-TAMRA-3′; UTR-1: 5′-FAM-GCGGCGGCGGAGG-TAMRA-3′; UTR-2: 5′-FAM-[…]-TAMRA-3; T-Loop:5′-FAM-[…]-TAMRA-3′; F21T: 5′-FAM-[…]-TAMRA-3′. Non-labelled oligonucleotides were used in FRET competition assays and in the spectroscopic studies: ds26: - d(5′-CAATCGGATCGAATT CGATCCGATTG-3′); KRAS21R: 5′-[…]-3′; HT21: 5′-[…]-3′. Each oligonucleotide was initially diluted to a storage solution at 100 μM in nuclease-free water (not DEPC-treated), purchased from Ambion Applied Biosystems UK.
(§4) The ability of indolo[3,2-c]quinolines to stabilize DNA sequences was investigated using a Fluorescence Resonance Energy Transfer (FRET) assay as reported elsewhere.
(§5) Figure S3 (cont.)| Concentration-dependent (0.1, 0.5, 1, 2, 3, 4 and 5 µM) FRET melting profiles of G4 structures and T-loop DNA with indolo[3,2-c]quinoline derivatives 1a, 2a-g and 3d-j in K-cacodylate buffer (pH 7.4, 60 mM K+). […]
(§6) Table S5 | FRET stabilization temperatures (ΔTm) of G4s sequences and ds-DNA (0.2 µM) stabilized by […]

[2] = test system: T-loop, a 26-mer hairpin double-stranded DNA; assay: FRET melting assay, T-loop hairpin ds-DNA; type: binding; conditions: ds-DNA 0.2 μM, ligand 1 μM, K-cacodylate buffer pH 7.4, 60 mM K+
Method: as §1, §2, §3, §4, §5, §6

[3] = test system: HCT116 (colon); assay: MTS short-term cytotoxicity assay, HCT116; type: cell-based, human; conditions: Homo sapiens, HCT-116; MTS assay, 72 h; read-out: IC50 HCT116
Method: (§7) Short-term anti-proliferative assays were carried out by two different assays using a panel of human cancer and non-malignant human cell lines. […] The transformed human embryonic kidney cell line HEK293T (wt KRAS) was sensitive to all tested drugs, including TMPyP4, a cationic porphyrin established as a G4 ligand, as well as the anticancer drug 5-fluorouracil (5-FU).
(§8) HCT116 human colon carcinoma cells, SW620 human colorectal adenocarcinoma and HEK293 T human embryonic kidney cells were grown in Dulbecco's modified Eagle's medium (DMEM) supplemented with 10% fetal bovine serum, and 1% antibiotic/antimycotic (Invitrogen, Grand Island, NY, USA) and maintained at 37°C in a humidified atmosphere of 5% CO2. Cells were seeded in 96 well plates at 5.000 cells/well. Twenty-four hours after cell plating, media was removed and replaced with fresh media containing test compounds and 5-FU (Sigma), a common cytotoxic agent used in colon cancer treatmen, or vehicle control (DMSO). Following 72 h of compound exposure, cell viability was evaluated using the CellTiter 96 AQueous Non-Radioactive Cell Proliferation Assay (Promega, Madison, WI, USA), using 3-(4,5-dimethylthiazol-2-yl)-5-(3-carboxymethoxyphenyl)-2-(4-sulfophenyl)-2H-tetrazolium, inner salt (MTS) as previously described. Cell viability data were expressed as mean ± SEM or mean ± SD from at least three independent experiments. IC50 and IC65 values were determined using GaphPad Prism v.5.00 (GraphPad Software). (Performed at Cell Function and Therapeutic Targeting Group, iMed.ULisboa)

[4] = test system: SW620 (metastatic colon); assay: MTS short-term cytotoxicity assay, SW620; type: cell-based; conditions: Homo sapiens, SW-620; MTS assay, 72 h; read-out: IC50 SW620
Method: as §7, §8

[5] = test system: HEK293T (embryonic kidney); assay: MTS short-term cytotoxicity assay, HEK293T; type: cell-based; conditions: Homo sapiens, HEK-293T; MTS assay, 72 h; read-out: IC50 HEK293T
Method: as §7, §8

[6] = test system: SW620 metastatic colon cancer cells; assay: Guava ViaCount assay, SW620; type: cell-based, human; conditions: IC65 concentration, 72 h
Description: The ability of IQcs to induce cell death in colon cancer cell lines with different genotypes (HCT116 and SW620) and in the non-malignant cell line HEK293T was studied by a Guava Via Count assay and compared with the behaviour of 5-FU and TMPyP4 at equitoxic concentrations (IC50 and IC65). Results in Figure 7 show dose-dependent induction of cell death, mainly by apoptosis, by all tested compounds in the HCT116 colon cancer cell line. […] In SW620 metastatic colon cancer cells, cell death induction was highly dependent on the number and position of side chains in IQc compounds. […]
Figure 7 Evaluation of the effect of IQc on cell viability using the ViaCount assay. […] Results are expressed as the mean percentage (%) of viable (white), mid-apoptotic (grey) and dead (black) cells ± SEM, of at least three different experiments, for (a) IC50, and for (b) IC65 compound concentrations. a, p < 0.05; b, p < 0.01 from DMSO (vehicle control); c, p < 0.05; and d, p < 0.01 from 5-FU. […]
Taqman Real-time PCR reactions were performed using 1.5 µg of total RNA, using High Capacity RNA to cDNA kit, according to the manufacturer`s instruction. […] The comparative threshold cycle method was used to calculate the amplification factor, where the threshold cycle (Ct) is defined as the cycle number at which the fluorescence passes the fixed threshold intensity level. […]

[7] = test system: colon cancer cell lines with mutated KRAS; assay: Anti-proliferative activity, colon cancer cell lines with mutated KRAS; type: cell-based; conditions: Homo sapiens; range over HCT116 and SW620
Description: These differences may be due to differing effects on cellular proliferation mechanisms, on cellular uptake and/or intracellular distribution. Assuming a passive diffusion membrane transport for IQcs, compound 2d is expected to accumulate more inside cells due to its predicted higher lipophilicity than compounds with an additional protonated basic group at physiologic pH (3d and 3e). Similarly, the tetra-cationic porphyrin TMPyP4, which is known to have low cell-membrane permeability, gave higher IC50 values.
as §8, with “Cells were seeded in 96 well plates at 5.000 cells/well. Twenty-four hours after cell plating, media was removed and replaced with fresh media containing test compounds and 5-FU (Sigma), a common cytotoxic agent used in colon cancer treatmen, or vehicle control (DMSO).” left out, “(Performed at Cell Function and Therapeutic Targeting Group, iMed.ULisboa)” left out

| SMILES | FRET stabilization temperature ΔTm (KRAS21R) [1] | FRET stabilization temperature ΔTm (T-loop) [2] | further results |
| --- | --- | --- | --- |
| C[n+]1cc2c3ccccc3[nH]c2c2cc(NCCCN3CCCCC3)ccc21 [2e] | 13.4 °C | 5.2 °C | – |
| CC(C)NCCCNc1ccc2c(c1)c1[nH]c3ccccc3c1c[n+]2C [2c] | 14.5 °C | 9.1 °C | – |
| Brc1ccc2ncc3c4ccccc4[nH]c3c2c1 [compound 1] | reduced or negligible ability to stabilize the KRAS21R G4 | 0.4 °C | IC50 [3]: 9.91 µM; FRET stabilization temperature ΔTm (KRAS21R) ([1]; listed as 1a): 0.7 °C; IC50 [4]: 10.7 µM; IC50 [5]: 8.03 µM |
| C[n+]1cc2c3ccc(NCCCN4CCOCC4)cc3[nH]c2c2cc(NCCCN3CCOCC3)ccc21 [3g] | 13.2 °C | 2.9 °C | – |
| C[n+]1cc2c3ccccc3[nH]c2c2cc(NCCCN3CCOCC3)ccc21 [2f] | 10.1 °C | 3.4 °C | – |
| O=c1[nH]cc(F)c(=O)[nH]1 [5-FU, 5-fluorouracil, reference compound] | – | – | Cell death induced, SW620 [6]: > 20%; IC50 [7]: 2.38 to 5.39 µM |
| CCN(CC)CCCC(C)Nc1ccc2c(c1)c1[nH]c3ccccc3c1c[n+]2C.[Cl-] (centres unmarked) [2g] | 15.4 °C | 1.9 °C | – |
| Brc1ccc2c3cn(Cc4ccccc4)c4ccc(Br)cc4c-3nc2c1 [3c] | – | 0.3 °C | – |
| CCN(CC)CCNc1ccc2c(c1)c1[nH]c3ccccc3c1c[n+]2C [2b] | 12.6 °C | 7.2 °C | – |
| CCN(CC)CCCC(C)Nc1ccc2[nH]c3c(c[n+](C)c4ccc(NC(C)CCCN(CC)CC)cc34)c2c1.[Cl-] (centres unmarked) [3h] | 11.8 °C | 1.7 °C | – |
| C[n+]1cc2c3cc(NCCCN4CCOCC4)ccc3[nH]c2c2cc(NCCCN3CCOCC3)ccc21 [3f] | 14.1 °C | 4.9 °C | – |
| CCN(CC)CCCNc1ccc2c(c1)[nH]c1c2c[n+](Cc2ccccc2)c2ccc(NCCCN(CC)CC)cc12.[Cl-] [3j] | 16.8 °C | 5.2 °C | – |
| CCN(CC)CCCC(C)Nc1ccc2c(c1)[nH]c1c2c[n+](C)c2ccc(NC(C)CCCN(CC)CC)cc12.[Cl-] (centres unmarked) [3i] | 13.9 °C | 2.4 °C | – |
